Six compounds from patent US11065296B2, “Antimicrobial peptide, its analog and use” (City University of Hong Kong, priority 2018, dated 2021) can be followed below.

Peptide text beside a SMILES is read from it.

Assay [1] deals with E. tarda. As to the kind of experiment: Host resistance assay, Experiment Two: pre-injection 2 h before bacteria. Type of assay: in vivo, Medaka. As to conditions: injected 2 h prior to E. tarda. The method, then:
FIG. 11A is a plot showing the effect of Peptide A on viability of cultured mammalian cells, incubated for 48 h in the presence of Peptide A at different concentrations (μg/ml), as determined by MTT assay. Cell viability represented as peptide treated cell numbers over medium-only control. Statistically significant difference as compared to controls (*: p<0.05, **: p<0.01, n=4). FIG. 11B is a plot showing the ability of Peptide A to protect medaka from lethal challenge of E. tarda ([…]). Medaka was injected with 1 μl of Peptide A (0.68 mM), with 1 μl of E. tarda (10^7 CFU/ml) and Peptide A (0.68 mM) mixture, or with E. tarda alone (1 μl of E. tarda:10^7 CFU/ml). […] 20 fish per group. Log-rank (Mantel-Cox) test was applied for the comparison of survival curves (**: p<0.01).
The efficacy of the synthesized AMP to protect medaka against infection was characterized using host resistance assays with intraperitoneal (i.p.) injection of bacteria using a micro-injection machine (PV820 Pneumatic PicoPump). In Experiment One, 80 medaka fish were used and divided into four groups (20 fish in each group, male, 6 months): (1) Group 1 was injected with only 1 μl of PBS in each fish; (2) Group 2 was injected with only 1 μl of novel AMP (0.68 mM) in each fish; (3) Group 3 was injected with 1 μl of bacteria (at a titer of 5×10^7 CFU/ml); and (4) bacteria and novel AMP were mixed for 5 min and then 1 μl of the mixture was injected into Group 4 (Bacteria: 5×10^7 CFU/ml, AMP: 0.68 mM). In Experiment Two, 60 fish were used and divided into three groups: each fish was injected with 1 μl of PBS, ampicillin (5.7 mM) or Peptide A (1.36 mM). The fish were anesthetized in MS222 for 30 s before microinjection. After two hours, 1 μl of bacteria (5×10^7 CFU/ml) was injected into the fish. All of the fishes were kept under a static condition of 26° C.±1° C., with 14:10 hrs of a light-dark cycle. The water was replaced every two days. The fish were fed three times each day. The number of dead fish was counted on a daily basis until two weeks after the injections.

For assay [2], the system named is E. coli PQ37. As to the kind of experiment: SOS induction (chromotest). Type of assay: cell-based. The method, then:
(§1) Results are expressed as 2^(−Delta Delta C (T)). […] Results are expressed as 2^(−Delta Delta C (T)).
E. coli PQ37 (Genotype: Sfi A and Lac Z fusion, lac Z) was cultured in lysogeny broth (LB) that contained 57.2 μM of ampicillin overnight (37° C.) and subcultured through 20 dilutions on another day so that OD600 equals to 0.2-0.4. PQ37 was incubated in 0.3 ml AMP (3.4 μM) or Piscidin ([…], 3.77 μM) for 2 hours and then re-suspended in the same volume of Z-buffer (Na2HPO4.7H2O 16.1 g/l, NaH2PO4.2H2O 6.24 g/L, KCl 0.75 g/L, MgSO4.7H2O 0.246 g/L and b-mercaptoethanol 0.3% (v/v)) for carrying out a β-galactosidase assay (β-ga) and alkaline phosphatase assay (ap), respectively. The bacteria were lysed with 0.1 ml of 0.1% SDS and 0.15 ml of chloroform. For the β-ga assay, the reaction was started by adding 0.6 ml of ortho-Nitrophenyl-β-galactoside (ONPG; Catalog number 34055, ThermoFisher Scientific) for color development and then stopped with the addition of 2 ml of 1 M NaCO3 solution. For ap acsay, the reaction was started by adding 0.6 ml of para-Nitrophenylphosphate (PNPP; Catalog number 34045, ThermoFisher Scientific) for color development which was then terminated by the addition of 1 ml of 2 M HCl solution and 1 ml of 2 M Tri-HCl to restore the colour. The absorbance was read at 420 nm against a blank without bacteria. The induction factor (IF) was calculated as the ratio R(x)/R(0) (R(x)=β-g/ap determined for the tested peptide; R(0)=β-g/ap determined for the LB). Furacin (antibiotic) and Piscidin were chosen as the controls. Each experiment was performed in triplicate.

The test system of assay [3] is E. coli. Type of assay: cell-based.
The subject of assay [4] is CpxR. Description: Quantitative real-time PCR. Type of assay: cell-based. As to conditions: E. tarda, Piscidin 7.5 μM, 1 hour.
Excerpt: as §1
Each group has 6 biological replicates. […] Gene-specific primers were designed with Primer-BLAST (NCBI).

Assay [5] concerns E. coli. As to the kind of experiment: Antibacterial activities of the peptide analogs (relative OD600). Type of assay: cell-based. The source says: FIG. 10 is a plot showing the antibacterial activities of the peptide analogs on E. coli. C-amidation: C-terminus amidated Peptide A; B1: RIILRAQGALKI; B2: IRIILRAQGALK; B3: RIILR. Results expressed as relative OD600 compared to culture medium group (%) (*: p<0.05, **: p<0.01, n=3)

For `CC1(C)S[C@@H]2[C@H](NC(=O)[C@H](N)c3ccccc3)C(=O)N2[C@H]1C(=O)O` [Ampicillin, reference compound], the initial survival rate result in assay [1] (one day post injection, Peptide A 1.37 mM, Ampicillin 5.7 mM, 1 μl) was “about 45%”. In assay [1] (two weeks after infection), the “effect on E. tarda infection / surviving fish” value is on record as “ineffective”.

Turning to `NC(=O)N/N=C/c1ccc([N+](=O)[O-])o1` [Furacin], the “SOS response (expression of LacZ), positive control” value in assay [2] (E. coli, different doses of Furacin) is given as “dose-dependent expression of LacZ”.

As for `CC(C)C[C@H](NC(=O)[C@H](Cc1ccc(O)cc1)NC(=O)[C@H](Cc1c[nH]cn1)NC(=O)[C@H](CCCCN)NC(=O)[C@H](CC(C)C)NC(=O)[C@H](C)NC(=O)[C@H](CC(C)C)NC(=O)[C@H](CCCCN)NC(=O)CNC(=O)[C@@H](NC(=O)[C@@H](NC(=O)[C@H](CCCCN)NC(=O)[C@@H](NC(=O)[C@H](CCC(=O)O)NC(=O)[C@H](C)NC(=O)[C@H](CCCCN)NC(=O)[C@H](CCCCN)NC(=O)[C@H](CC(C)C)NC(=O)[C@H](CC(C)C)NC(=O)[C@@H](NC(=O)[C@H](CCCNC(=N)N)NC(=O)[C@H](Cc1c[nH]c2ccccc12)NC(=O)CN)[C@@H](C)O)C(C)C)[C@@H](C)O)C(C)C)C(=O)O` [Piscidin] (H-GWRTLLKKAEVKTVGKLALKHYL-OH; N-terminus and C-terminus assumed), in assay [3], the “MIC for E. coli” value was determined as 3.77 µM. For the same compound, the CpxR gene expression entry in assay [4] is on record as “no effect”. In assay [2] (E. coli PQ37, 120 min, Peptide A 3.4 μM, Piscidin 3.77 μM), the “SOS response (induction factor)” value is “no effect on SOS response”.

As for “IRIILRAQGALK [Peptide B2, Peptide A with the C-terminal amino acid removed]”, the “antibacterial activity compared with Peptide A” value in assay [5] is “reduce the antibacterial effect”.

With RIILR [Peptide B3], in assay [5], the “antibacterial activity compared with Peptide A” value is “much weaker antibacterial activity”.

In the case of “RIILRAQGALKI [Peptide B1, Peptide A with the N-terminal amino acid removed]”, the “antibacterial activity compared with Peptide A” value in assay [5] is reported as “reduce the antibacterial effect”.
